# Measurements taken from patent US8242166B2, “C(10) ethyl ester and C(10) cyclopropyl ester substituted taxanes” (Florida State University Research Foundation, Inc., priority 2008, dated 2012).
# Where two headings read alike, the source gives them in different places.
# Experiments:
# [1] = test system: HT29; assay: MTT cytotoxicity (IC50), HT29; assay type: cell-based; conditions: Homo sapiens, HT-29, 72 h, read-out: IN Vitro IC50 (nm) HT29
# Description: (§1) Compound 17932 was tested in four of these cell lines, while the remaining compounds were tested in all of these cell lines. All cell lines were maintained in RPMI-1640 tissue culture medium (TCM, supplemented with antibiotics and 10% fetal bovine serum) and cultured at 37° C. in humidified air containing 5% CO2. To assess the antiproliferative effects of the test compounds, 172 μL of tumor cell suspension (1.45×10^4 cells/ml) were added to each well of a 96-well plate and incubated for 24 h at 37° C. in 5% CO2 in air to allow cells to adhere. Seven 2-fold drug dilutions in TCM/DMSO were performed in triplicate in separate 96-well plates and 28 μL was transferred to the wells containing tumor cells (200 μL final volume/0.1% DMSO). Plates were incubated for 72 h and cell viability was determined by adding 50 μL of warm TCM containing 5 mg/mL MTT (3-[4,5-dimethylthiazol-2-yl]-2,5-diphenyltetrazolium bromide) to each well and incubating for 1 h at 37° C. Plates were processed and the absorbances of the resulting solutions were measured by a plate reader at 570 nm. […] (GraphPad Prism version 4.00 for Windows). Studies were conducted by Taxolog, Inc., Tallahassee, Fla.
# [2] = test system: 786-0; assay: MTT cytotoxicity (IC50), 786-0; assay type: cell-based; conditions: Homo sapiens
# Description: as §1
# [3] = test system: HT29 human tumor xenografts; assay: HT29 xenograft study e212, oral and i.v. (Example 26); conditions: every four day schedule for four doses
# From the text: (§2) The formulation for oral studies was an ethanol and Cremophor formulation while the formulation for compound 18365 and compound 19244 dosed i.v. was 5% ethanol and 95% Liposyn II 20%.
# [4] = test system: human BxPC-3 human pancreatic xenograft; assay type: in vivo
# Description: Method: Twenty four (24) hours after a whole body irradiation with a γ-source (7.0 Gy, Co^60, INRA, Dijon, France) 20×10^6 BxPC-3 cells in 200 μl of RPMI 1640 culture medium were subcutaneously injected in the right flank of 8 female Nude rats to generate tumor material. When the tumor size reaches approximately 1,000 mm^3, the tumors were surgically excised for implantation into recipient Nude female rats. Twenty four (24) hours after a whole body irradiation (7.0 Gy, Co^60, INRA, Dijon, France), fresh BxPC-3 tumor fragments were sc implanted in the right flank of 52 Nude female rats (1 fragment/rat) at D0 using surgical pliers and skin was stitched. The antitumor activity study was started at D21 when the mean tumor volume has reached 321.6±131.2 mm^3. Before the start of treatments, 42 tumor bearing rats out of 52 grafted were randomized into 7 groups of 6 animals.
# […]. At 7 mg/kg/inj, only two treatments were performed at D21 and D42 due to severe body weight loss.
# [5] = test system: HT29 human tumor xenografts; assay: HT29 xenograft study e210, oral and i.v. (Example 25); conditions: for CR (complete regression) / NTR NTRa/u / NTR NTRm / PR (partial regression) / TFS (tumor-free survivor) / TR (treatment-related death): n=6
# From the text: as §2
# [6] = test system: OVCAR4; assay: MTT cytotoxicity (IC50), OVCAR4; assay type: cell-based; conditions: Homo sapiens, OVCAR-4, 72 h, read-out: IN Vitro IC50 (nm) OVCAR4
# Description: as §1
# [7] = test system: MALME-3; assay: MTT cytotoxicity (IC50), MALME-3; assay type: cell-based; conditions: Homo sapiens, 72 h, read-out: IN Vitro IC50 (nm) Malme3
# Description: as §1
structure (smiles),measurement,setting,value
CCC(=O)O[C@H]1C(=O)[C@@]2(C)C([C@H](OC(=O)c3ccccc3)[C@]3(O)C[C@H](OC(=O)[C@H](O)[C@@H](NC(=O)OC4CCC4)c4cccs4)C(C)=C1C3(C)C)[C@]1(OC(C)=O)CO[C@@H]1C[C@@H]2O (some centres unmarked) [Compound 19244],IC50,[1],600 pM
same,IC50,"[2]; MTT, 72 h, read-out: IN Vitro IC50 (nm) 786-0",900 pM
same,IC50,"[2]; Resistance MDR1+, read-out: 786-0 Renal (Table 4, quantity not named; IC50 values as Table 2)",900 pM
same,activity in the HT29 xenograft tumor model,[3],oral and IV activity
same,tolerability of repeated IV treatments,[4]; 5 mg/kg/inj,well tolerated
same,mean doubling time (DT) of tumors,"[4]; 5 mg/kg/inj IV, repeated",19.3 ± 6.5 days
same,"time to reach volume (T to V) of 1,000 mm^3","[4]; 5 mg/kg/inj IV, repeated",46.0 ± 11.6 days
same,MBWC D21-D26,"[4]; 5 mg/kg/inj IV, after the first injection",−15.9±5.6%
same,optimal T/C % value,"[4]; 5 mg/kg/inj IV, at D53",27.7%
same,tolerability of repeated IV treatments,[4]; 7 mg/kg/inj,not tolerated
same,rats out of six alive at the end of the study,[4]; 7 mg/kg/inj IV,two
same,MBWC D21-D26,"[4]; 7 mg/kg/inj IV, after the first treatment",−20.1±5.7%
same,antitumor activity,[4]; repeated IV injections at 5 and 7 mg/kg/inj,marked antitumor activity
same,% TGD,[5]; 30 mg/kg iv q4d × 4,214.3%
same,BW Nadir,[5]; 30 mg/kg iv q4d × 4,11.1% (16)
same,"MTV (n), Day 60",[5]; 30 mg/kg iv q4d × 4,36.00 (6) mm^3
same,Median TTE,[5]; 30 mg/kg iv q4d × 4,60 days
same,T-C,[5]; 30 mg/kg iv q4d × 4,40.91 days
same,CR (complete regression),[5]; 30 mg/kg iv q4d × 4,1
same,NTR NTRa/u,[5]; 30 mg/kg iv q4d × 4,0
same,NTR NTRm,[5]; 30 mg/kg iv q4d × 4,0
same,PR (partial regression),[5]; 30 mg/kg iv q4d × 4,5
same,TFS (tumor-free survivor),[5]; 30 mg/kg iv q4d × 4,1
same,TR (treatment-related death),[5]; 30 mg/kg iv q4d × 4,0
same,% TGD,[5]; 60 mg/kg po q4d × 4,214.3%
same,BW Nadir,[5]; 60 mg/kg po q4d × 4,−8.5% (16)
same,"MTV (n), Day 60",[5]; 60 mg/kg po q4d × 4,0.25 (6) mm^3
same,Median TTE,[5]; 60 mg/kg po q4d × 4,60 days
same,T-C,[5]; 60 mg/kg po q4d × 4,40.91 days
same,CR (complete regression),[5]; 60 mg/kg po q4d × 4,4
same,NTR NTRa/u,[5]; 60 mg/kg po q4d × 4,0
same,NTR NTRm,[5]; 60 mg/kg po q4d × 4,0
same,PR (partial regression),[5]; 60 mg/kg po q4d × 4,2
same,TFS (tumor-free survivor),[5]; 60 mg/kg po q4d × 4,4
same,TR (treatment-related death),[5]; 60 mg/kg po q4d × 4,0
same,activity in the HT29 xenograft tumor model,[5]; every four day schedule for four doses,oral and IV activity
same,IC50,[6],2700 pM
same,IC50,[7],1100 pM
